# Experimental data reported in US6407096B1, “Benzene fused heterocyclic derivatives having thromboxane A2 receptor antagonistic activity and prostaglandin I2 Agonistic activity and application thereof” (Toray Industries, Inc., priority 1998, dated 2002).
# Legend:
# [1] = test system: platelet-rich plasma (PRP), platelet aggregation induced by TXA2 agonist U-46619; assay: Platelet aggregation inhibiting action 1 (U-46619-induced aggregation in PRP); assay type: cell-based; conditions: human PRP, aggregation induced by U-46619 (final 1 to 4 μM), compound added 1 minute before
# Experimental: (§1) The blood collected from the human medial cubital vein was centrifuged at 800 rpm for 10 minutes, and the upper portion was collected as platelet-rich plasma (PRP). PRP was dispensed to small test tubes, and TXA2 agonist U-46619 was added thereto (the final concentration 1 to 4 μM) to induce platelet aggregation. The degree of platelet aggregation was measured as a change in turbidity by a platelet aggregation measuring device (Hematracer 1, Nikko Bioscience). Each compound was added 1 minute before the addition of U-46619, and a concentration at which aggregation was 50% inhibited was calculated as a IC50 value.
# [2] = test system: platelet-rich plasma (PRP), platelet aggregation induced by ADP; assay: Platelet aggregation inhibiting action 2 (ADP-induced aggregation in PRP); assay type: cell-based; conditions: human PRP, aggregation induced by ADP (final 1 to 10 μM), compound added 1 minute before
# Experimental: as §1, with “was centrifuged 800 rpm” for “was centrifuged at 800 rpm”, “tubes, and ADP was added” for “tubes, and TXA2 agonist U-46619 was added”, “1 to 10 μM) to” for “1 to 4 μM) to”, “addition of ADP, and a” for “addition of U-46619, and a”, “calculated as IC50 value.” for “calculated as a IC50 value.”
# PGI2 receptor = target: T1, PGI2 receptor (Homo sapiens, UniProt P43119); assay: PGI2 receptor binding experiment (tritium-labeled compound A, platelet membrane fraction); conditions: tritium-labeled compound A 10 nM, 4° C., 60 minutes, read-out: PGI2 receptor affinity Ki
# T1 construct: 0.1 mg protein/ml of platelet membrane fraction suspension (100 μl) at 4° C. for 60 minutes; from tissue; host or cells: platelets (membrane fraction)
# Experimental: As a PGI2 receptor ligand, tritium-labeled (1R, 2R, 3aS, 8bS)-2,3,3a,8b-tetrahydro-2-hydroxy-1-[(E)-(3S, 4S)-3-hydroxy-4-methyl-1-octene-6-ynyl]-1H-cyclopenta [b]benzofuran-4-butanoic acid (compound A) was used. A saturation test was conducted by reaction of compound A (100 μl) at a final concentration of 3 to 100 nM and 0.1 mg protein/ml of platelet membrane fraction suspension (100 μl) at 4° C. for 60 minutes under shaking. Competitive experiment was carried out by reaction of a mixed solution (100 μl) of a test compound dissolved in an appropriate solvent and diluted and compound A at a final concentration of 10 nM, and 0.1 mg protein/ml of platelet membrane fraction suspension (100 μl) at 4° C. for 60 minutes under shaking. After the completion of reaction, the membrane fraction was recovered on a glass filter by a cell harvester, and washed with an ice-cold buffer. Then, radioactivity was measured by a scintillation counter. Nonspecific binding to a substance other than the receptor was determined by reaction in the presence of beraprost sodium at a final concentration of […]. In the competitive experiment, IC50 value and Hill coefficient of each of test compounds were determined by pseudo-Hill plots, and the receptor dissociation constant (Ki value) was determined from the IC50 value and the receptor dissociation constant (Kd value) of compound A, which was obtained by saturation experiment, according to the following equation:
# Ki value=IC50 value/[1+(radioactive ligand concentration/Kd value)]
# TXA2 receptor = target: T2, TXA2 receptor (Homo sapiens, UniProt P21731); assay: TXA2 receptor binding test ([3H]SQ29548, platelet membrane fraction); conditions: [3H]SQ29548 10 nM, 25° C., 30 minutes, read-out: TXA2 receptor affinity Ki
# T2 construct: The finally obtained sediment was used as a platelet membrane fraction; from tissue; host or cells: human platelets (membrane fraction from venous blood)
# T2 sequence (P21731 1-343): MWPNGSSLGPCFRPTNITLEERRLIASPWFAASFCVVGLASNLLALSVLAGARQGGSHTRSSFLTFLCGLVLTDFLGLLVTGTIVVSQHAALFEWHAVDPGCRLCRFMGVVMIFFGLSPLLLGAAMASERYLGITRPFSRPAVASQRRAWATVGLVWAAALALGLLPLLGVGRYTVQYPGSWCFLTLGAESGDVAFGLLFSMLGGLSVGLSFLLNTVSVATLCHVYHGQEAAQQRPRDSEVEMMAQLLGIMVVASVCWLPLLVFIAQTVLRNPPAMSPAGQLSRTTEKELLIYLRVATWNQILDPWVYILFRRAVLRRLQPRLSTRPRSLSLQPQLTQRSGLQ
# Experimental: The blood collected from the human antebrachial vein and 1/10 volume of ACD solution (85 mM trisodium citrate, 65 mM citric acid, 2% glucose) were mixed, and 8 ml of the mixture was dispensed to each of Spitz tubes. The platelet-rich plasma obtained by centrifugation at room temperature and 200×g for 10 minutes was further centrifuged at 1000×g for 15 minutes to obtain platelets. The thus-obtained platelets were centrifugally washed with a cleaning buffer (115 mM sodium chloride, 4.3 mM potassium dihydrogen phosphate, 5.5 mM glucose, 1 mM disodium EDTA, 10 μM […], pH 6.5), and 1 ml of a dissolution buffer (10 mM tris(hydroxymethyl)aminomethane, 5 mM magnesium chloride, 2 mM disodium EDTA, pH 7.4) was added to-the platelets, followed by three times of freezing in liquid nitrogen and melting at room temperature to crush the platelets. The crushed platelets were cleaned by three times of ultracentrifugation (40000×g, 20 minutes each) using […] ice-cold tris-hydrochloric acid buffer. The finally obtained sediment was used as a platelet membrane fraction.
# As a TXA2 receptor ligand, tritium-labeled SQ29548 ([^3H]SQ29548) was used. As a solvent for receptor binding reaction, a 50 mM tris-hydrochloric acid buffer ([…] magnesium chloride, pH 7.4) was used. A saturation test was conducted by reaction of [^3H]SQ29548 (100 μl) at a final concentration of 3 to 100 nM and 0.1 mg protein/ml of platelet membrane fraction suspension (100 μl) at 25° C. for 30 minutes under shaking. […] Then, radioactivity was measured by a scintillation counter. Nonspecific binding to a substance other than the receptor was determined by reaction in the presence of SQ29548 at a final concentration of […]. In the competitive experiment, IC50 value and Hill coefficient of each of the test compounds were determined by pseudo-Hill plots, and the receptor dissociation constant (Ki value) was determined from the IC50 value and the receptor dissociation constant (Kd value) of [^3H]SQ29548, which was obtained by saturation experiment, according to the following equation: […]
# T1 sequence (P43119 whole entry): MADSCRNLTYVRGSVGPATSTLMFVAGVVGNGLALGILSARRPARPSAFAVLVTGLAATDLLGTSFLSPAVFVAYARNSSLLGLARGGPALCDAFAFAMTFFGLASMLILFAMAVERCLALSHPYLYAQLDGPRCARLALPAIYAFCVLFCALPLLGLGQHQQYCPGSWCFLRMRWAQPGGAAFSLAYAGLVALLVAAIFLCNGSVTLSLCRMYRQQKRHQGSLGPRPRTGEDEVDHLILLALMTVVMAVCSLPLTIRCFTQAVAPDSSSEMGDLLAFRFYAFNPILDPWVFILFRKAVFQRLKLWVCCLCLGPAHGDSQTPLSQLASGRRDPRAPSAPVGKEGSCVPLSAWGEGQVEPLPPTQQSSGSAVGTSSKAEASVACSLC
melting point [°C],Structure (SMILES),IC50 [1] [nM],IC50 [2] [nM],Ki (PGI2 receptor) [nM],Ki (TXA2 receptor) [nM]
110.1,"CC(SCCN1C(=O)COc2c(CCC(=O)O)cccc21)(c1ccccc1)c1ccccc1 [Example 33, 3-(4-(2-(1,1-diphenylethylthio)ethyl)-3-oxo-3,4-dihydro-2H-1,4-benzoxazin-8-yl)propionic acid]",–,–,–,–
127 to 131,"O=C(O)COc1cccc2c1OCCN2CCSCc1ccccc1 [Example 25, (4-(2-(benzylthio)ethyl)-3,4-dihydro-2H-1,4-benzoxazin-8-yloxy) acetic acid]",–,–,–,–
114,"CC(C)(SCCN1CCOc2c(OCC(=O)O)cccc21)c1ccccc1 [Example 24, (4-(2-(1-methyl-1-phenylethylthio)ethyl)-3,4-dihydro-2H-1,4-benzoxazin-8-yloxy)acetic acid]",–,–,–,–
149,CC(SCCN1CCOc2c(OCC(=O)O)cccc21)(c1ccsc1)c1ccsc1 [Example 27],–,–,–,–
183 to 184,"COC(=O)COc1cccc2c1OCC(=O)N2CC(=O)NC(c1ccccc1)c1ccccc1 [Example 12, Methyl (4-((diphenylmethylcarbamoyl)methyl)-3-oxo-3,4-dihydro-2H-1,4-benzoxazin-8-yloxy)acetate]",–,–,–,–
138 to 139,"CC(CSCCN1CCOc2c(OCC(=O)O)cccc21)(c1ccccc1)c1ccccc1 [Example 26, (4-(2-(2,2-diphenylpropylthio)ethyl)-3,4-dihydro-2H-1,4-benzoxazin-8-yloxy)acetic acid]",–,–,–,–
232 to 234,"O=C(O)COc1cccc2c1OCC(=O)N2CC(=O)NC(c1ccccc1)c1ccccc1 [Example 32, (4-((diphenylmethylcarbamoyl)methyl)-3-oxo-3,4-dihydro-2H-1,4-benzoxazin-8-yloxy)acetic acid]",–,–,–,–
94 to 95,COC(=O)COc1cccc2c1OCCN2CCSC(c1ccccc1)c1ccccc1,–,–,–,–
142 to 143,"CC(SCCN1CCOc2c(OCC(=O)O)cccc21)(c1ccc(F)cc1)c1ccc(F)cc1 [Example 23, (4-(2-(1,1-bis-(4-fluorophenyl)ethylthio)-ethyl)-3,4-dihydro-2H-1,4-benzoxazin-8-yloxy)acetic acid]",–,–,–,–
106,"CC(SCCN1C(=O)COc2c(OCC(=O)O)cccc21)(c1ccccc1)c1ccccc1 [Example 31, (4-(2-(1,1-diphenylethylthio)ethyl)-3-oxo-3,4-dihydro-2H-1,4-benzoxazin-8-yloxy)acetic acid]",–,–,–,–
101,"COC(=O)COc1cccc2c1OCCN2CCSC(C)(c1ccccc1)c1ccccc1 [Example 2, Methyl (4-(2-(1,1-diphenylethylthio)ethyl)-3,4-dihydro-2H-1,4-benzoxazin-8-yloxy)acetate]",–,–,–,–
140 to 140.5,"O=C(O)COc1cccc2c1OCCN2CCSC(c1ccccc1)(c1ccccc1)C(F)(F)F [Example 22, (4-(2-(1,1-diphenyl-2,2,2-trifluoroethylthio)ethyl)-3,4-dihydro-2H-1,4-benzoxazin-8-yloxy)acetic acid]",–,–,–,–

Structure (SMILES),melting point [°C],IC50 [1] [nM],IC50 [2] [nM],Ki (PGI2 receptor) [nM],Ki (TXA2 receptor) [nM]
CC(SCCN1CCOc2c(OCC(=O)[O-])cccc21)(c1ccccc1)c1ccccc1.[Na+],110,–,–,–,–
"CC(SCCC1COc2c(OCC(=O)O)cccc21)(c1ccccc1)c1ccccc1 (stereo not shown) [Example 37, (3-(2-(1,1-diphenylethylthio)ethyl)-2,3-dihydrobenzofuran-7-yloxy)acetic acid]",65 to 67,490,1800,–,–
"O=C(O)COc1cccc2c1OCCN2CCSC(c1ccccc1)c1ccccc1 [Example 20, (4-(2-(diphenylmethylthio)ethyl)-3,4-dihydro-2H-1,4-benzoxazin-8-yloxy)acetic acid]",172.5,1300,2000,–,–
"CC(SCCN1CCCc2c(OCC(=O)O)cccc21)(c1ccccc1)c1ccccc1 [Example 34, (1-(2-(1,1-diphenylethylthio)ethyl)-1,2,3,4-tetrahydroquinolin-5-yloxy)acetic acid]",150.5 to 152,590,1300,520,120
"O=C(O)COc1cccc2c1OCC2CCSC(c1ccccc1)c1ccccc1 (stereo not shown) [Example 36, (3-(2-(diphenylmethylthio)ethyl)-2,3-dihydrobenzofuran-7-yloxy)acetic acid]",88 to 89,550,950,230,70
"O=C(O)COc1cccc2c1OCCN2CCOC(c1ccccc1)c1ccccc1 [Example 28, (4-(2-(diphenylmethoxy)ethyl)-3,4-dihydro-2H-1,4-benzoxazin-8-yloxy)acetic acid]",112 to 113,5700,16000,–,–
"CC(OCCN1CCOc2c(OCC(=O)O)cccc21)(c1ccccc1)c1ccccc1 [Example 29, (4-(2-(1,1-diphenylethoxy)ethyl)-3,4-dihydro-2H-1,4-benzoxazin-8-yloxy)acetic acid]",108,5500,16000,–,–
"CC(SCCN1CCOc2c(OCC(=O)O)cccc21)(c1ccccc1)c1ccccc1 [Example 21, (4-(2-(1,1-diphenylethylthio)ethyl)-3,4-dihydro-2H-1,4-benzoxazin-8-yloxy)acetic acid]",161 to 161.5,550,1800,430,50
